# From PubChem BioAssay AID613 (The Scripps Research Institute Molecular Screening Center, 2007)
# The source made the active and inactive calls.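 The calls were made as follows: active = EC50 at or below 10 micromolar; inactive = EC50 above 10 micromolar.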
# Biological target: 5-hydroxytryptamine receptor 1A (Homo sapiens) (UniProt P08908)
# Test: human 5-HT1a agonist potency, dose response, cell-based, CHO, Ga15 NFAT-bla reporter (AID 613)
# Conditions: CHO 5-HT1a Ga15 NFAT-bla reporter, agonist FRET
# Chain of 5-hydroxytryptamine receptor 1A (Homo sapiens) (P08908 whole entry, looked up): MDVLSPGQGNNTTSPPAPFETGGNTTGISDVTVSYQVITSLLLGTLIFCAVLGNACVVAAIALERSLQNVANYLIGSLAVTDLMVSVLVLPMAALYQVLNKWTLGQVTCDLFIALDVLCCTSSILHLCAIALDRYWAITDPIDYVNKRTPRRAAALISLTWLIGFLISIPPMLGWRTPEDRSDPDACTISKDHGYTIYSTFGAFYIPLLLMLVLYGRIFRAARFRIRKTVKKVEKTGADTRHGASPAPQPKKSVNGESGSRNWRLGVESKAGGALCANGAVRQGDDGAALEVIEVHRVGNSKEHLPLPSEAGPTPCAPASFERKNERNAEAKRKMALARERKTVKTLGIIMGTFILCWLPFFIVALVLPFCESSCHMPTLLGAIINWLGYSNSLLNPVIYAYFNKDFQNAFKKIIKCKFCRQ
row,EC50,Structure (SMILES)
1,inactive,NC(=O)c1cc2ccc(O)cc2oc1=Nc1ccccc1
2,inactive,CCCCCCc1cc2cc(C(=O)NC)c(=N)oc2cc1O
3,> 99 µM (inactive),C=CCOc1cccc(C2C(C(=O)c3ccco3)=C(O)C(=O)N2CCN(CC)CC)c1 (stereo unspecified)
4,> 99 µM (inactive),Nc1nonc1/C(=N/O)N1CCCC1
5,> 99 µM (inactive),CCN(CC)c1ccc2cc(C(=O)Nc3ccccn3)c(=O)oc2c1
6,inactive,COc1ccccc1N=c1oc2cc(O)ccc2cc1C(N)=O
7,> 99 µM (inactive),CCSCCOC(=O)C1=C(C)NC(=O)NC1c1ccc2c(c1)OCO2 (stereo unspecified)
8,> 99 µM (inactive),COc1ccc(N=c2oc3cc(O)ccc3cc2C(=O)NCC2CCCO2)c(OC)c1 (stereo unspecified)
9,> 99 µM (inactive),COCCOC(=O)C1=C(C)Nc2nc(C)nn2C1c1ccc(F)cc1 (stereo unspecified)
10,> 99 µM (inactive),N#C/C(=C(/O)COC(=O)Cc1c[nH]c2ccccc12)c1nc2ccccc2[nH]1
11,> 33 µM (inactive),CCOC(=O)c1sc2c(c1C)C(c1cccs1)C1=C(CCCC1=O)N2 (stereo unspecified)
12,> 99 µM (inactive),COc1ccc(N=c2oc3cc(O)ccc3cc2C(=O)NCC2CCCO2)cc1 (stereo unspecified)
13,> 99 µM (inactive),Cc1ccc(N2C(=O)CC(N3CCN(C4CCc5ccccc5C4)CC3)C2=O)cc1 (stereo unspecified)
14,> 99 µM (inactive),CN(C)CCCN1C(=O)C(=O)/C(=C(/O)c2ccc3c(c2)OCCO3)C1c1ccccn1 (stereo unspecified)
15,> 99 µM (inactive),COc1ccc(OC)c(N=c2oc3cc(O)ccc3cc2C(N)=O)c1
16,> 99 µM (inactive),CCCCCCc1cc2cc(-c3nnc(-c4ccccc4O)o3)c(=O)oc2cc1O
17,> 99 µM (inactive),CCCCOc1ccc(C2C3CN(C(=O)OCC)CC=C3C(C#N)=C(N)C2(C#N)C#N)cc1OC (stereo unspecified)
18,inactive,COc1ccccc1N=c1oc2cc(O)ccc2cc1C(=O)NCC1CCCO1 (stereo unspecified)
19,inactive,NC(=O)c1cc2ccc(O)cc2oc1=NCc1ccccc1
20,inactive,Cc1ccc(C2C3CN(C(C)C)CC=C3C(C#N)=C(N)C2(C#N)C#N)cc1 (stereo unspecified)
21,> 99 µM (inactive),Cc1noc(NS(=O)(=O)c2ccc(N3CC(O)=C(c4ccccc4)C3=N)cc2)c1C
22,> 99 µM (inactive),CN(C)c1ccc(C2C=C(c3ccc(Cl)cc3OC(F)F)Nc3ncnn32)cc1 (stereo unspecified)
23,inactive,CC(C)N1CC=C2C(C#N)=C(N)C(C#N)(C#N)C(c3ccccc3)C2C1 (stereo unspecified)
24,inactive,Cc1cccc(N=c2oc3cc(O)ccc3cc2C(N)=O)c1
25,> 99 µM (inactive),N#CC1=C(N)N(c2ccccc2)C(c2ccco2)C1(C#N)C#N (stereo unspecified)
26,inactive,Cc1ccc(N=c2oc3cc(O)ccc3cc2C(N)=O)cc1
